Patent US12396942B2, “Seed extract of Annona cherimola” (CLR-Chemisches Laboratorium Dr. Kurt Richter GmbH, priority 2019, dated 2025)

Experiments:
IL-1β = assay: Capsaicine-induced IL-1β release in co-culture of keratinocytes and human sensory neurons; format: cell-based; conditions: FIG. 3
Procedure: (§1) To examine whether an F230 extract prepared as described in Example 1 is able to inhibit IL-1β and IL-8 expression, a co-culture system of keratinocytes and human sensory neurons was used. Human sensory neurons were derived from human induced pluripotent stem cells (hiPS cells). hiPS cells were obtained by transfecting human fibroblasts which were reprogrammed into […]. hiPS cells were plated in 6 wells plates coated by a thin layer of Matrigel® (Corning GmbH, Kaiserslautern, Germany) at a density of 250,000 cells in a medium composed by DMEM-F12 (Pan-Biotech, Aidenbach, Germany) supplemented with 10% Knockout Serum Replacement (Life technologies, Carlsbad, USA), 0.1 μM retinoic acid (Sigma Aldrich, Taufkirchen, Germany), 1% P/S (Pan-Biotech) and a cocktail of inhibitors. The culture was maintained for 6 days at 37° C. and 5% of CO2.
(§2) After 6 days of differentiation, hiPS cells were plated at a density of 20,000 cells in the differentiation medium using 96-well plates that had been coated with a thin layer of Matrigel®. […] Samples were evaluated by cytometry flux (BD Bioscience) and compared to non-treated controls.

IL-8 = assay: Capsaicine-induced IL-8 release in co-culture of keratinocytes and human sensory neurons; format: cell-based; conditions: FIG. 4
Procedure: as §1, §2

[1] = co-culture of keratinocytes and human sensory neurons, 1 hour capsaicin stimulation, supernatant
[2] = co-culture, capsaicine as stimulus, compared to non-treated controls

SMILES | inhibition of capsaicine-induced IL-1β release (IL-1β; [1]) | inhibition of capsaicine-induced IL-8 release (IL-8; [1]) | IL-1β expression on incubation with capsaicine alone (IL-1β; [2]) | IL-8 expression on incubation with capsaicine alone (IL-8; [2])
Oc1cc2c(cc1O)CN(C(=S)NCCc1ccc(Cl)cc1)CCC2 [capsazepine] | completely abrogates IL-1β release | significantly reduced IL-8 release | – | –
COc1cc(CNC(=O)CCCC/C=C/C(C)C)ccc1O [capsaicine] | – | – | strongly induced IL-1β expression | strongly induced IL-8 expression
